Source: patent US20250059172A1, “INDAZOLE COMPOUND AND PHARMACEUTICAL” (NIPPON SHINYAKU CO., LTD., priority 2021, published 2025)
pIC50: −log10 of the molar value.

Tests used:
human mPGES-1 = human mPGES-1 (Homo sapiens (Human), UniProt O14684); assay: mPGES-1 inhibitory activity test; assay type: biochemical; conditions: for IC50: microsomes of CHO-K1 cells expressing human mPGES-1, PGH2 1 μM, PGE2 by HTRF, read-out: mPGES-1 inhibition (IC50 nM); for inhibition at 0.01 µM: 10 nM test compound
Summary of the method: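 PGE2 formation was quantified by HTRF and reported as percent inhibition at 10 and 100 nM compound or as IC50. The 60-second reaction at 4° C used 1 μM PGH2, after a 20-minute 4° C preincubation of compound (1% DMSO final) with glutathione-supplemented (2.5 mM, pH 7.4) microsomes. The microsomes were from transiently transfected CHO-K1 cells expressing human mPGES-1.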

human A549 cells = assay: Inhibition test of PGE2 production using human A549 cells; assay type: cell-based; conditions: IL-1β stimulated A549 cells, 24 h, PGE2 by HTRF, read-out: A549 cell inhibition of PGE2 production IC50
Summary of the method: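 PGE2 (HTRF) and PGF2a (EIA) were quantified in medium after 24 h, 37°C IL-1β stimulation (5 ng/well) of human A549 cells that had received test compound 60 min beforehand (0.1% DMSO, 3% FBS RPMI). IC50 relative to the window between IL-1β-stimulated and unstimulated controls.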

[1] = test system: Female Hartley guinea pigs; assay: Suppression of urinary output in a guinea pig model of water-loaded polyuria; assay type: in vivo; conditions: oral, total urinary output up to 3 hours after water load, relative to vehicle group
Procedure: The water-loaded polyuria model, commonly used as a model for polyuria, was used to evaluate the inhibitory effect of the test compounds on urinary output in the following manner. Female Hartley guinea pigs (Japan SLC Co., Ltd.) were acclimated in a metabolic cage (Natsume Seisakusho Co., Ltd.) in a fasted condition from the evening of one day before the test. On the following day, 20 mL/kg of distilled water was administered orally as a water load, and then the guinea pigs were placed back in the metabolic cage and the total urinary output up to 3 hours after the water load was downloaded into a personal computer via an electronic balance (GX-200, A&D Corporation) and a data collection and analysis system (PowerLab®, ADInstruments), and then analyzed using analyzing software (LabChart®, ADInstruments). Test compounds dissolved in 0.5% methylcellulose solution (vehicle) or vehicle only were administered orally immediately before water loading depending on the kinetics of the compound. Based on the total urinary output at 3 hours after administration of the test compound and vehicle groups, the percentage inhibition of urinary output of the test compound group (%) was calculated relative to the urinary output of the vehicle group.

Sequence of human mPGES-1 (O14684 whole entry): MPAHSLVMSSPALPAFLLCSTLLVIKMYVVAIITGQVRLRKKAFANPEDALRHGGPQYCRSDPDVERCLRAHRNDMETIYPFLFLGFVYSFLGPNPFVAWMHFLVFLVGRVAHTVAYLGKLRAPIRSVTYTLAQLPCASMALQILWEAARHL

| SMILES | IC50 (human mPGES-1) [nM] | pIC50 (human A549 cells) | inhibition at 0.01 µM (human mPGES-1) [%] | inhibition at 0.1 µM (human mPGES-1; 100 nM test compound) [%] | Suppression (%) of urinary output [1] [%] |
| --- | --- | --- | --- | --- | --- |
| Cc1ccc(-n2ncc3c(NC(=O)c4cc(CNC(=O)C(C)(C)C)ccc4C(F)(F)F)cccc32)cn1.Cl [Example 88, 5-{[(2,2-Dimethylpropanoyl)amino]methyl}-N-[1-(6-methylpyridin-3-yl)-1H-indazol-4-yl]-2-(trifluoromethyl)benzamide hydrochloride] | 1.5 | 7.17 | – | – | 34.5 |
| CC(C)(CO)C(=O)NCc1ccc(Cl)c(C(=O)Nc2cccc3c2cnn3-c2cccc(OC(F)(F)F)c2)c1 [Example 125, 2-Chloro-5-{[(3-hydroxy-2,2-dimethylpropanoyl)amino]methyl}-N-{1-[3-(trifluoromethoxy)phenyl]-1H-indazol-4-yl}benzamide] | – | 8.46 | 62 | – | 58.0 |
| Cc1ccc(-n2ncc3c(NC(=O)c4cc(CNC(=O)C(C)(C)C)ccc4Cl)cccc32)nn1 [Example 59, 2-Chloro-5-{[(2,2-dimethylpropanoyl)amino]methyl}-N-[1-(6-methylpyridazin-3-yl)-1H-indazol-4-yl]benzamide] | 34.2 | 7.61 | – | – | 21.2 |
| COc1ccc(-n2ncc3c(NC(=O)c4cc(CNC(=O)C(C)(C)C)ccc4C(F)(F)F)cccc32)cn1 [Example 276, 5-{[(2,2-Dimethylpropanoyl)amino]methyl}-N-[1-(6-methoxypyridin-3-yl)-1H-indazol-4-yl]-2-(trifluoromethyl)benzamide] | – | 8.52 | 68 | 94 | 35.1 |

Continued, in another order:

| IC50 (human mPGES-1) [nM] | pIC50 (human A549 cells) | inhibition at 0.01 µM (human mPGES-1) [%] | inhibition at 0.1 µM (human mPGES-1; 100 nM test compound) [%] | SMILES | Suppression (%) of urinary output [1] [%] |
| --- | --- | --- | --- | --- | --- |
| 4.3 | 9.00 | – | – | CC(C)(C)C(=O)NCc1ccc(Cl)c(C(=O)Nc2cccc3c2cnn3-c2ccnc(C3CC3)c2)c1.Cl [Example 70, 2-Chloro-N-[1-(2-cyclopropylpyridin-4-yl)-1H-indazol-4-yl]-5-{[(2,2-dimethylpropanoyl)amino]methyl}benzamide hydrochloride] | 25.1 |
| 3.8 | 8.68 | – | – | CC(C)(C)C(=O)NCc1ccc(Cl)c(C(=O)Nc2cccc3c2cnn3-c2ccc(C3CC3)nc2)c1.Cl [Example 69, 2-Chloro-N-[1-(6-cyclopropylpyridin-3-yl)-1H-indazol-4-yl]-5-{[(2,2-dimethylpropanoyl)amino]methyl}benzamide hydrochloride] | 57.8 |
